Measured values from the NIST ThermoML archive (doi:10.1021/je034017j).

Assay: xn = mol fraction of the nth substance listed
Details: 101 kPa, Liquid

CCCCCCO [hexan-1-ol] + CCCCCCCC
Details	kinematic viscosity [m2/s]	mass density [kg/m3]
293.15 K, x2 = 0	6.61e-06	818.84
293.15 K, x2 = 0.0618	5.49e-06	809.74
293.15 K, x2 = 0.086	–	806.25
293.15 K, x2 = 0.1114	4.74e-06	802.62
293.15 K, x2 = 0.1597	–	795.86
293.15 K, x2 = 0.1891	–	791.83
293.15 K, x2 = 0.1928	3.74e-06	791.32
293.15 K, x2 = 0.2346	–	785.68
293.15 K, x2 = 0.3022	2.75e-06	776.82
293.15 K, x2 = 0.4039	2.08e-06	764.07
293.15 K, x2 = 0.495	1.67e-06	753.22
293.15 K, x2 = 0.4994	–	752.71
293.15 K, x2 = 0.6088	1.31e-06	740.42
293.15 K, x2 = 0.715	1.08e-06	729.21
293.15 K, x2 = 0.7991	–	720.79
293.15 K, x2 = 0.8086	9.47e-07	719.86
293.15 K, x2 = 0.8381	–	717.02
293.15 K, x2 = 0.8767	–	713.37
293.15 K, x2 = 0.9078	8.43e-07	710.5
293.15 K, x2 = 0.9272	–	708.75
293.15 K, x2 = 0.9458	8.03e-07	707.09
303.15 K, x2 = 0	4.88e-06	811.56
303.15 K, x2 = 0.0233	–	808.05
303.15 K, x2 = 0.051	–	803.93
303.15 K, x2 = 0.086	3.85e-06	798.81
303.15 K, x2 = 0.1189	–	794.07
303.15 K, x2 = 0.1308	3.41e-06	792.38
303.15 K, x2 = 0.1581	–	788.53
303.15 K, x2 = 0.188	2.94e-06	784.37
303.15 K, x2 = 0.1922	–	783.8
303.15 K, x2 = 0.2352	–	777.94
303.15 K, x2 = 0.2632	–	774.2
303.15 K, x2 = 0.308	2.15e-06	768.33
303.15 K, x2 = 0.369	–	760.56
303.15 K, x2 = 0.3936	1.75e-06	757.47
303.15 K, x2 = 0.4152	–	754.82
303.15 K, x2 = 0.4508	–	750.49
303.15 K, x2 = 0.4994	1.38e-06	744.75
303.15 K, x2 = 0.5249	–	741.79
303.15 K, x2 = 0.578	–	735.78
303.15 K, x2 = 0.5852	1.17e-06	734.98
303.15 K, x2 = 0.6255	–	730.55
303.15 K, x2 = 0.7026	9.66e-07	722.36
303.15 K, x2 = 0.7143	–	721.15
303.15 K, x2 = 0.774	–	715.1
303.15 K, x2 = 0.7909	–	713.42
303.15 K, x2 = 0.8042	8.42e-07	712.11
303.15 K, x2 = 0.8532	–	707.39
303.15 K, x2 = 0.8767	7.73e-07	705.17
303.15 K, x2 = 0.9009	–	702.91
303.15 K, x2 = 0.9272	7.36e-07	700.52
303.15 K, x2 = 0.947	–	698.76
313.15 K, x2 = 0	3.69e-06	804.28
313.15 K, x2 = 0.0229	–	800.79
313.15 K, x2 = 0.0502	–	796.68
313.15 K, x2 = 0.0646	3.13e-06	794.53
313.15 K, x2 = 0.0825	–	791.88
313.15 K, x2 = 0.1067	2.81e-06	788.35
313.15 K, x2 = 0.1205	–	786.35
313.15 K, x2 = 0.1569	–	781.14
313.15 K, x2 = 0.2007	2.24e-06	774.99
313.15 K, x2 = 0.2441	–	769.04
313.15 K, x2 = 0.2976	1.78e-06	761.89
313.15 K, x2 = 0.3132	–	759.85
313.15 K, x2 = 0.3441	–	755.84
313.15 K, x2 = 0.3882	1.46e-06	750.23
313.15 K, x2 = 0.3938	–	749.53
313.15 K, x2 = 0.4703	–	740.16
313.15 K, x2 = 0.4916	1.18e-06	737.63
313.15 K, x2 = 0.4949	–	737.24
313.15 K, x2 = 0.5873	1e-06	726.62
313.15 K, x2 = 0.6023	–	724.95
313.15 K, x2 = 0.6746	–	717.11
313.15 K, x2 = 0.6964	–	714.81
313.15 K, x2 = 0.7108	8.36e-07	713.3
313.15 K, x2 = 0.757	–	708.56
313.15 K, x2 = 0.7619	–	708.06
313.15 K, x2 = 0.7893	7.56e-07	705.32
313.15 K, x2 = 0.8428	–	700.08
313.15 K, x2 = 0.8748	–	697.03
313.15 K, x2 = 0.9109	6.67e-07	693.67
313.15 K, x2 = 0.9297	–	691.97
313.15 K, x2 = 0.9599	6.41e-07	689.33

CCCCC(=O)OC [methyl pentanoate] + CCCCCCO
Capillary tube (Ostwald / Ubbelohde) method
Details	kinematic viscosity [m2/s]
293.15 K, x1 = 0.085	4.728e-06
293.15 K, x1 = 0.1145	4.25e-06
293.15 K, x1 = 0.1854	3.367e-06
293.15 K, x1 = 0.2862	2.527e-06
293.15 K, x1 = 0.4123	1.87e-06
293.15 K, x1 = 0.5087	1.533e-06
293.15 K, x1 = 0.6157	1.256e-06
293.15 K, x1 = 0.6835	1.129e-06
293.15 K, x1 = 0.7846	9.82e-07
293.15 K, x1 = 0.9071	8.57e-07
293.15 K, x1 = 0.9274	8.42e-07
293.15 K, x1 = 1	8e-07
303.15 K, x1 = 0.0771	3.701e-06
303.15 K, x1 = 0.1183	3.251e-06
303.15 K, x1 = 0.192	2.619e-06
303.15 K, x1 = 0.2983	1.994e-06
303.15 K, x1 = 0.4502	1.436e-06
303.15 K, x1 = 0.4593	1.412e-06
303.15 K, x1 = 0.5089	1.285e-06
303.15 K, x1 = 0.613	1.085e-06
303.15 K, x1 = 0.691	9.67e-07
303.15 K, x1 = 0.7873	8.55e-07
303.15 K, x1 = 0.8796	7.75e-07
303.15 K, x1 = 0.9346	7.39e-07
303.15 K, x1 = 1	7.08e-07
313.15 K, x1 = 0.0802	2.858e-06
313.15 K, x1 = 0.1168	2.58e-06
313.15 K, x1 = 0.1965	2.082e-06
313.15 K, x1 = 0.2939	1.644e-06
313.15 K, x1 = 0.3995	1.321e-06
313.15 K, x1 = 0.5141	1.083e-06
313.15 K, x1 = 0.548	1.028e-06
313.15 K, x1 = 0.5971	9.61e-07
313.15 K, x1 = 0.6912	8.44e-07
313.15 K, x1 = 0.7876	7.52e-07
313.15 K, x1 = 0.9035	6.75e-07
313.15 K, x1 = 0.9358	6.58e-07
313.15 K, x1 = 1	6.34e-07

Details	mass density [kg/m3]
293.15 K, x1 = 0.085	824.62
293.15 K, x1 = 0.1145	826.65
293.15 K, x1 = 0.1854	831.55
293.15 K, x1 = 0.2862	838.56
293.15 K, x1 = 0.4123	847.4
293.15 K, x1 = 0.5087	854.22
293.15 K, x1 = 0.6157	861.84
293.15 K, x1 = 0.6835	866.67
293.15 K, x1 = 0.7846	873.96
293.15 K, x1 = 0.9071	882.86
293.15 K, x1 = 0.9274	884.35
293.15 K, x1 = 1	889.75
303.15 K, x1 = 0.0771	816.54
303.15 K, x1 = 0.1183	819.23
303.15 K, x1 = 0.192	824.09
303.15 K, x1 = 0.2983	831.16
303.15 K, x1 = 0.4502	841.37
303.15 K, x1 = 0.4593	841.99
303.15 K, x1 = 0.5089	845.34
303.15 K, x1 = 0.613	852.44
303.15 K, x1 = 0.691	857.8
303.15 K, x1 = 0.7873	864.46
303.15 K, x1 = 0.8796	870.9
303.15 K, x1 = 0.9346	874.8
303.15 K, x1 = 1	879.51
313.15 K, x1 = 0.0802	809.21
313.15 K, x1 = 0.1168	811.47
313.15 K, x1 = 0.1965	816.46
313.15 K, x1 = 0.2939	822.62
313.15 K, x1 = 0.3995	829.39
313.15 K, x1 = 0.5141	836.8
313.15 K, x1 = 0.548	838.99
313.15 K, x1 = 0.5971	842.2
313.15 K, x1 = 0.6912	848.37
313.15 K, x1 = 0.7876	854.78
313.15 K, x1 = 0.9035	862.6
313.15 K, x1 = 0.9358	864.8
313.15 K, x1 = 1	869.32
